For assay [1], the target named is T1, aromatase activity in JAR choriocarcinoma placental cells (Homo sapiens, UniProt P11511).
T1 construct: JAR choriocarcinoma placental cells (which produce aromatase expression from promoter I.1 mediated by protein kinase C); host or cells: JAR
T1 sequence (P11511 1-503): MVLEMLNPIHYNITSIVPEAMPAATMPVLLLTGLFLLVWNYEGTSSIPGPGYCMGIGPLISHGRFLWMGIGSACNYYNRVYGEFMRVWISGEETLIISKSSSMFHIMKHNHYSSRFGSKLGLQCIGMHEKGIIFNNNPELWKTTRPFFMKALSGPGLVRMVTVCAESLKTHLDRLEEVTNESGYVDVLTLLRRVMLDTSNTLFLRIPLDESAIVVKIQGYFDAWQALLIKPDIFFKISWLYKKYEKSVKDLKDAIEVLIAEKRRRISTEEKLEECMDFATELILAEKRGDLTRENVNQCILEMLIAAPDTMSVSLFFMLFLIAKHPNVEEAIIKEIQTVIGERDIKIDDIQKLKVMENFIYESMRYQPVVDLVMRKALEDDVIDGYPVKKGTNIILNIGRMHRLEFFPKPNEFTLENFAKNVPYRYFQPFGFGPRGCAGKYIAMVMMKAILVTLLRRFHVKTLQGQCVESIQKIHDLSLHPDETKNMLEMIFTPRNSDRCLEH
As to the kind of experiment: Tritiated water-release assay in JAR cells. Particulars: 24 h, 15 μM (FIG. 11), read-out: decrease of aromatase activity in JAR cells. The assay is classed as cell-based. The method, then:
(§1) Cell Culture. AR and SK-BR-3 cells were obtained from ATCC (Rockville, Md.). SK-BR-3 cells were maintained in phenol red-free custom media (MEM, Earle's salts, 1.5× amino acids, 2× non-essential amino acids, L-glutamine, 1.5× vitamins, Gibco BRL) supplemented with 10% fetal bovine serum (FBS), 2 mM L-glutamine and 20 mg/L gentamycin. JAR cells were maintained in RPMI 1640 medium with 2 mM L-glutamine adjusted to contain 1.5 g/L sodium bicarbonate, 4.5 g/L glucose, 10 mM HEPES, and 1.0 mM sodium pyruvate, 90%; FBS, 10%. Fetal bovine serum was heat inactivated for 30 min in a 56° C. water bath before use. Cell cultures were grown at 37° C., in a humidified atmosphere of 5% CO2 in a Hereaus CO2 incubator. For all experiments, cells were plated in 6 well plates and grown to subconfluency. Before treatment, the media was changed to a defined one containing DMEM/F12 media (Sigma) with 1.0 mg/mL human albumin (OSU Hospital Pharmacy), 5.0 mg/L human transferin and 5.0 mg/L bovine insulin.
(§2) Tritiated water-release assay in JAR and SK-BR-3 cell lines. Measurement of aromatase enzyme activity was based on the tritium water release assay. Cells in six well plates were treated with 0.1% DMSO (control), and inhibitors at the indicated concentrations. After 24 hours, the cells were incubated 3 hours (SK-BR-3 cells) or 1 hour (JAR cells) with fresh media along with 100 nM [1β-^3H]-androst-4-ene-3,17-dione (1 μCi). Subsequently, the reaction mixture was removed, and proteins were precipitated using 10% trichloroacetic acid at 42° C. for 20 min. After a brief centrifugation, the media was extracted three times with an equal amount of chloroform to remove remaining substrate and further treated with dextran-treated charcoal. After centrifugation, a 250-μl aliquot containing the product was counted in 5 ml of liquid scintillation mixture. Results were corrected for blanks and for the cell contents of culture flasks, and results were expressed as picomoles of ^3H2O formed per hour incubation time per million live cells (pmol/h/10^6 cells). To determine the amount of cells in each flask, the cells were lysed and analyzed using the diphenylamine DNA assay adapted to a 96-well plate. IC50 sigmoidal dose-response data were analyzed with Microsoft Excel and the Graphpad Prism (Version 3.0) program.
(§3) Diphenylamine DNA Assay To determine the amount of viable cells in each flask, the cells were lysed with 0.5N NaOH aqueous solution and analyzed using the diphenylamine DNA assay adapted to a 96-well plate. DNA standards (0-30 μg) were prepared using double-stranded DNA reconstituted in PBS and added in triplicates directly to the wells. A uniform cell suspension was prepared from the 6 well plate in 300 μl 0.5N NaOH aqueous solution, and 60 μl of the unknown samples were added in triplicates to separate wells. A solution of 0.16% acetaldehyde in water was prepared and mixed at a 1:5 ratio with perchloric acid (20% vol/vol). This solution (60 μl) was added to each well along with 100 μl of a 4% diphenylamine solution in glacial acetic acid. The plates were incubated at 37° C. for 24 hours. After centrifugation, 100 μl supernatant of each well was transferred to a new 96 well plate, and the OD595 was measured using a microplater reader. The DNA concentration was determined by extrapolation to the standard curve and the amount of cells/well was calculated using the equation: 1 cell≈7 pg DNA.

The test system of assay [2] is aromatase activity in SK-BR-3 breast cancer cells. The assay can be described thus: Tritiated water-release assay in SK-BR-3 cells (additional compounds). The assay is classed as cell-based, human. To be noted: for IC50: dose-response (FIG. 13), read-out: IC50 (μM), suppression of aromatase activity in SK-BR-3 breast cancer cells. The method, then:
as §1, with “JAR cells were maintained in RPMI 1640 medium with 2 mM L-glutamine adjusted to contain 1.5 g/L sodium bicarbonate, 4.5 g/L glucose, 10 mM HEPES, and 1.0 mM sodium pyruvate, 90%; FBS, 10%.” left out
as §2
as §3, with “A solution of 0.16% acetaldehyde in water was prepared and mixed at a 1:5 ratio with perchloric acid (20% vol/vol).” left out

This note sets out measurements from patent US7741520B2, “Sulfonanilide analogs as selective aromatase modulators (SAMs)” (The Ohio State University Research Foundation, priority 2006, dated 2010).

Structures are written as SMILES.

As to `CN(c1ccc([N+](=O)[O-])cc1OCc1ccccc1)S(C)(=O)=O` [Compound 26f, N-methyl-N-(2-benzyloxy-4-nitrophenyl) methanesulfonamide], the inhibition at 15 µM in assay [1] is less than 50%. Besides, in assay [2], the IC50 was found to be 0.81 ± 0.29 µM.

Turning to `CN(c1ccc([N+](=O)[O-])cc1OCc1ccc([N+](=O)[O-])cc1)S(C)(=O)=O` [Compound 27c, N-methyl-N-[2-(4′-nitrobenzyloxy)-4-nitrophenyl]methanesulfonamide], in assay [1], the inhibition at 15 µM is less than 50%. Moreover, the IC50 in assay [2] was found to be 0.49 ± 0.14 µM.

For the molecule `CN(c1ccc([N+](=O)[O-])cc1OCc1ccc2ccccc2c1)S(C)(=O)=O` [Compound 28c, N-methyl-N-[2-(β-naphthylmethoxy) 4-nitrophenyl]methanesulfonamide], the inhibition at 15 µM in assay [1] is less than 50%. Moreover, in assay [2], the 50% inhibitory concentration (IC50) is 2.68 ± 0.91 µM.

Consider `CN(c1ccc([N+](=O)[O-])cc1OCc1ccccc1-c1ccccc1)S(C)(=O)=O` [Compound 29c, N-methyl-N-[2-(2′-phenylbenzyloxy)-4-nitrophenyl]methanesulfonamide], for which, in assay [1], the inhibition at 15 µM is less than 50%. Further, the IC50 in assay [2] stood at 0.33 ± 0.15 µM. Besides, the “increase in activity compared with nimesulide” value in assay [2] (from IC50 values) is reported as “eighty fold increase”.

In the case of `Cc1ccc(COc2cc([N+](=O)[O-])ccc2N(C)S(C)(=O)=O)cc1` [Compound 30c, N-methyl-N-[2-(4′-methylbenzyloxy)-4-nitrophenyl]methanesulfonamide], the inhibition at 15 µM in assay [1] is less than 50%. Moreover, the IC50 in assay [2] is 2.33 ± 0.66 µM.

Turning to `CN(c1ccc([N+](=O)[O-])cc1OCc1ccc(F)cc1)S(C)(=O)=O` [Compound 33c, N-methyl-N-[2-(4′-fluorobenzyloxy)-4-nitrophenyl]methanesulfonamide], the inhibition at 15 µM in assay [1] was less than 50%. The IC50 in assay [2] came out at 1.78 ± 0.63 µM.

Usually IC50 stands for the concentration at which inhibition is half-maximal.
